Here are results for one compound from article PMC11887451, “Leveraging Immunogenic Cell Death to Enhance the Immune Response against Malignant Pleural Mesothelioma Tumors” (Journal of the American Chemical Society, 2025).

The test relates to AB12 cells. Description: Annexin V/PI assay (necrosis), flow cytometry. It is filed as cell-based, mouse. To be noted: AB12, 5 × IC50 (72 h), 100 min. As to the method: centrifugation of the cells (300 × g, 5 min), 5 ml of fresh RPMI was introduced, and the cells were seeded at a density of 5 x 10^5 cells per well into Cellstar 6-well plates (Greiner Bio-One) (1 ml per well). J774 macrophages (70-80% confluence in a T75 flask) were detached by scraping, centrifuged (300 × g, 5 min). The medium was substituted with 1 ml of DMEM containing CellTracker Green CMFDA (1 μM) and the J774 macrophages were stained at 37°C for 30 minutes. Following centrifugation of the J774 macrophages (300 × g, 5 min), 5 ml of fresh DMEM was introduced, and the macrophages were seeded into a 100 cm2 petri dish (SPL Life Sciences, Korea). After 24 h, the media in AB12 cells was replaced with 1 ml of fresh RPMI containing compounds of interest at equipotent concentration of 5 × IC50 and incubated for 100 minutes. After removing the drug-containing media, the cells were trypsinized (0.5 ml), neutralized with 1 ml of RPMI, centrifuged (300 × g, 5 min) and counted. From each sample, 2 × 10^5 AB12 cells were seeded into Cellstar 6-well plates (Greiner Bio-One) (1 ml per well).
2 × 10^5 J774 macrophages were detached from a petri dish by scraping and added to AB12 cells into 6-well plates. AB12 cells and J774 macrophages were co-incubated for 16 h at 37°C and 5% CO2, detached by scraping, centrifuged (300 × g, 5 min), and the pellets were resuspended in PBS for immediate analysis using a CytoFLEX Flow Cytometer (Beckman Coulter, USA). The percentage of phagocytosis was determined by calculating the number of double-positive macrophages (Q2) over the total number of macrophages (Q2 + Q3). Dot plots […]
analysis of the flow cytometry data. […]
concentrations for 100 min at 37 °C. […] Cell death was evaluated by flow cytometry using a CytoFLEX Flow Cytometer equipped with a 488 nm laser and a 638 nm laser (Beckman Coulter, Brea, CA, USA). The cells were excited by the 488 nm laser, and fluorescence emissions were detected at 525/40 nm for FITC (Annexin V) and at 610/20 nm for ECD (PI).
The percentage of necrosis was determined by calculating the sum of cells in Q1 and Q2. […]
(In general: A flow cytometer gives signals particle by particle.)

Regarding `F[P-](F)(F)(F)(F)F.c1cc[c]2c(c1)Nc1cccc[n+]1[Au-]21[S]C(=[N+]2CCCCCC2)[S]1` (stereo not shown) [5G], the “necrosis level (Q1 + Q2)” value is 6%–8%.
